{"source": "patent US20240050440A1", "about": "“THERAPEUTIC TARGETS AND AGENTS FOR THE TREATMENT OF TRIOSEPHOSPHATE ISOMERASE (TPI) DEFICIENCY” (University of Pittsburgh- Of The Commonwealth System of …, priority 2020, published 2024)", "key": {"TPI^sugarkill": {"tested_on": "TPI^sugarkill", "assay": "Isolation and visualization of poly-ubiquitinated TPI from MG132-fed flies", "format": "in vivo, Drosophila melanogaster", "settings": "flies fed 1 mg/mL MG132 for 24 hours at 25° C. or 29° C.; immunoprecipitation and Western blot", "method": "Conjugated anti-TPI resin was prepared with TPI antibody (FL249, Santa Cruz Biotechnology) and the Pierce co-immunoprecipitation kit. Homozygous TPI^sugarkill flies were fed 1 mg/mL MG132 (Sigma) on 10% sucrose for 24 hours at 25° C. or 29° C. Following incubation, flies were homogenized using a mechanical homogenizer in Pierce co-immunoprecipitation lysis buffer with Protease Inhibitor Mini-Tablets (Pierce), MG132 (0.1 mg/mL, Sigma) and NEM (1 μM, Sigma). Protein concentration was determined by BCA assay (Pierce). The lysates (2 mg) were incubated on a rotator overnight at 4° C. with 100 μl of the conjugated anti-TPI resin. The columns were washed three times with 200 μL of Pierce IP wash buffer with Protease Inhibitor Mini-Tablets (Pierce), MG132 (0.1 mg/mL) and 1 μM NEM. A bead only control provided by the Pierce IP kit served as a negative control. The samples were eluted into 2×SDS-PAGE sample buffer (130 mM Tris (pH 6.8), 4% SDS, 4% beta-mercaptoethanol, 20% glycerol, 0.1% bromophenol blue) with Protease Inhibitor Mini-Tablets (Pierce), MG132 (0.1 mg/mL, Sigma) and NEM (1 μM, Sigma). Western blots were conducted as described above with the exception that the blots were boiled in distilled water for 30 minutes prior to blocking. The antibody used for detection of ubiquitin was anti-ubiquitin (1:1000, 6C1 mouse Santa Cruz Biotechnology). […]"}, "[1]": {"tested_on": "TPI^E105D-GFP fusion protein", "assay": "HEK293 TPI^E105D-GFP high content assay (GFP intensity per cell)", "format": "cell-based, human", "settings": "for repeat of hit activity in every condition: NIH Clinical Collection, 10 μM and 1 μM, 24 hours and 48 hours; for TPI^E105D-GFP fluorescence (in words): prescreen of putative protein stabilizing compounds, 48 hours; for hit call in LOPAC screen: 10 μM, 48 hour condition", "method": "HEK293 cells expressing a mutant (E105D) TPI-GFP fusion protein were created using the Flp-In System (Invitrogen, Catalog #K6010-01 and K6010-02) following the manufacturer's protocol. Briefly, a host cell line expressing the transfected Flp-In target site vector, pFRT/lacZeo, was obtained following zeocin resistance selection. TPI^E105D-GFP fusion construct was cloned into the pcDNA 5/FRT expression vector. Co-transfection of 0.1 μg of the pcDNA 5/FRT construct (390 ng/μL) and 0.9 μg of the Flp recombinase expression vector (pOG44, 127 ng/μL) into the Flp-In host cell line was performed with 3.75 μL Lipofectamine 2000 reagent (Invitrogen). A hygromycin dose response was performed to determine the minimum concentration of hygromycin B required to kill untransfected host cells. […] Expression of the TPI^E105D-GFP fusion protein was verified via Western blot. The cells were cultured using standard methods (37° C., 5% CO2) in normal media (DMEM with 10% serum, 100 U penicillin/100 μg streptomycin/ml (Lonza)). To document subcellular localization of mutant GFP-tagged TPI, nuclei were stained with Hoechst 33342 and imaged on an ImageXpress Ultra confocal high content reader in the UV and GFP channel, respectively. A z-series of images (60× objective, 90 planes, 0.3 μm z-steps) was acquired in both channels, and the color combined stack subjected to 3D reconstruction in MetaXpress. A single slice of the reconstructed image was chosen to illustrate the phenotype of mutant TPI-GFP expression.\nHEK293 TPI^E105D-GFP cells were plated (50,000 cells/well in collagen-coated 96-well thin-bottom microplates and allowed to attach overhight. Cells were treated with four point, two-fold gradients of 5× treatment solutions of test agents (6 replicates per condition). The final concentration of vehicle was 0.2%. After 48 hours in culture, cells were preincubated with propidium iodide (PI) for 30 minutes and imaged live in the GFP and Texas Red channels on an ImageXpress Ultra high content reader (Molecular Devices) using a 20× objective Images were analyzed with the multiwavelength cell scoring application using GFP to define and enumerate cells. The integrated GFP intensity per cell was used to quantify mutant TPI expression; the number of cells was used as a proxy for growth inhibition and/or cell loss; and the percentage of cells that exceeded a threshold for PI based on vehicle-treated controls was used to measure acute toxicity (necrosis).\nAssay ready daughter plates of the NIH Clinical Collection containing 2 μL of a 1 mM DMSO stock were reconstituted in DMEM (60 μL) to yield a 30 μM intermediate treatment concentration. 60 μl of DMSO (3%) was added to columns 1 and 24, and 60 μL of 600 nM luminespib was added to columns 2 and 23 to serve as negative and positive controls, respectively. Aliquots (15 μl) were transferred directly to cells in 384 well plates using an Agilent Bravo liquid handling robot (final concentration in assay, 10 μM). For the 1 μM condition, an aliquot of the 30 μM treatment solution was diluted 1:10 and controls added as above. Aliquots (15 μl) were transferred to cells to yield a […] final concentration. Plates were centrifuged for 30 seconds at 200×g and incubated at 37° C. After 24 hours, plates were imaged live in the GFP channel and returned to the incubator; after 48 hours cells were stained with PI, imaged live in the GFP and PI channels, and analyzed as described above. The LOPAC library was screened using the same procedure except that only the 10 μM, 48 hour condition was used.\nA pilot library screen was performed using the NIH Clinical Collection in the HEK TPI^E105D-GFP cell line. The NIH Clinical Collection maintained at the UPDDI contains 446 FDA approved drugs and small molecules that have a history of use in human clinical trials. The collections were assembled through the Molecular Libraries and Imaging Initiative as part of its mission to enable the use of compound screens in biomedical research. […]"}, "[2]": {"tested_on": "TPI^E105D-GFP fusion protein", "assay": "HEK293 TPI^E105D-GFP high content assay (GFP intensity per cell)", "format": "cell-based, human", "settings": "fresh repurchased samples, ten-point twofold dose-response"}, "TPI^E105D-GFP": {"tested_on": "TPI^E105D-GFP", "assay": "High-content analysis in U2OS TPI^E105D-GFP cells", "format": "cell-based, human", "settings": "48 hours", "method": "U2OS osteosarcoma cells (ATCC HTB-96) engineered to express the mutant (E105D) TN-GFP protein were generated using the identical method described above for HEK cells and maintained in McCoy's 5A medium (ThermoFisher 16600082).\n(§1) FB303 cells were plated (1000/well) in a 384 well collagen-coated microplate. Cells were treated with vehicle (DMSO) or ten-point, two-fold gradients of test compounds for 48 hours in quadruplicates. Cells were fixed with 4% formaldehyde and immunostained with an anti-TPI antibody (Santa Cruz sc-30145) followed by a Cy3-conjugated goat anti-rabbit secondary (Jackson Immunoresearch). Nuclei were counterstained with Hoechst 33342 Images were acquired on an OPERA Phenix high-content imager (20× air objective, widefield, 4 fields/well) and analyzed for total cellular GFP intensity (HEK and U2OS) or total cellular Cy3 intensity (FB303) using Harmony 5.0 image analysis software (Perkin Elmer)."}, "TPI": {"tested_on": "TPI", "assay": "High-content analysis of TPI levels in patient fibroblasts by immunocytochemistry", "format": "cell-based, human", "settings": "48 hours", "method": "as §1"}, "[3]": {"settings": "Luo et al. 2015; said to correlate with concentrations needed to increase TPI^E105D-GFP in HEK cells; cited from earlier work"}}, "note": "Where a SMILES comes first, the peptide text is derived from it. The star is where a group is joined. Cbz = O=C(OCc1ccccc1)*", "data": [{"compound": "CC(C)C[C@@H](C=O)NC(=O)[C@H](CC(C)C)NC(=O)[C@H](CC(C)C)NC(=O)OCc1ccccc1", "note": "[MG132] (Cbz-Leu-Leu-Leu-aldehyde)", "values": [{"measurement": "polyubiquitinated TPI^sugarkill signal", "setting": "TPI^sugarkill", "value": "accumulation of polyubiquitinated signal"}]}, {"compound": "Cc1[nH]c(=O)c(C#N)cc1-c1ccncc1", "note": "[milrinone]", "values": [{"measurement": "repeat of hit activity in every condition", "setting": "[1]", "value": "repeated in every condition"}]}, {"compound": "CC(C)C[C@H](NC(=O)[C@H](Cc1ccccc1)NC(=O)c1cnccn1)B(O)O", "note": "[bortezomib]", "values": [{"measurement": "TPI^E105D-GFP fluorescence (in words)", "setting": "[1]", "value": "significant increase"}]}, {"compound": "Oc1ccc(/C=C/c2cc(O)cc(O)c2)cc1", "note": "[resveratrol, 3,5,4′-trihydroxy-trans-stilbene]", "values": [{"measurement": "concentration dependence of TPI^E105D-GFP increase", "setting": "[2]", "value": "concentration-dependent increases"}, {"measurement": "dose-response confirmation of activity, total GFP levels per cell", "setting": "TPI^E105D-GFP", "value": "confirmed activity"}, {"measurement": "dose-response confirmation of activity, total anti-TPI fluorescence", "setting": "TPI", "value": "confirmed activity"}, {"measurement": "hit call in LOPAC screen", "setting": "[1]", "value": "positive hits"}]}, {"compound": "C[C@H]1[C@H](OC(=O)CCC(=O)O)O[C@@H]2O[C@@]3(C)CC[C@H]4[C@H](C)CC[C@@H]1[C@@]24OO3", "note": "[artesunate, 4-oxo-4-[[(1R,4S,5R,8S,9R,10S,12R,13R)-1,5,9-trimethyl-11,14,15,16-tetraoxatetracyclo[10.3.1.0^4,13.0^8,13]hexadecan-10-yl]oxy]butanoic acid]", "values": [{"measurement": "dose-response confirmation of activity, total GFP levels per cell", "setting": "TPI^E105D-GFP", "value": "confirmed activity"}, {"measurement": "dose-response confirmation of activity, total anti-TPI fluorescence", "setting": "TPI", "value": "confirmed activity"}, {"measurement": "repeat of hit activity in every condition", "setting": "[1]", "value": "repeated in every condition"}]}, {"compound": "COc1ccccc1OCCNCC(O)COc1cccc2[nH]c3ccccc3c12", "note": "(stereo not shown) [carvedilol]", "values": [{"measurement": "repeat of hit activity in every condition", "setting": "[1]", "value": "repeated in every condition"}]}, {"compound": "O=C(O)C[C@H](O)C[C@H](O)/C=C/c1c(C2CC2)nc2ccccc2c1-c1ccc(F)cc1", "note": "[itavastatin]", "values": [{"measurement": "concentration dependence of TPI^E105D-GFP increase", "setting": "[2]", "value": "concentration-dependent increases"}, {"measurement": "peak plasma levels in humans", "setting": "[3]", "value": 0.55, "unit": "µM"}, {"measurement": "repeat of hit activity in every condition", "setting": "[1]", "value": "repeated in every condition"}]}, {"compound": "CC[C@H](C)C(=O)O[C@H]1CCC=C2C=C[C@H](C)[C@H](CC[C@@H]3C[C@@H](O)CC(=O)O3)[C@H]21", "note": "[mevastatin]", "values": [{"measurement": "hit call in LOPAC screen", "setting": "[1]", "value": "positive hits"}]}, {"compound": "C[C@@H]1C[C@@H]([C@H](O)CC2CC(=O)NC(=O)C2)C(=O)[C@@H](C)C1", "note": "[cycloheximide]", "values": [{"measurement": "TPI^E105D-GFP fluorescence (in words)", "setting": "[1]", "value": "significant increase"}]}]}
